Experimental findings from article PMC8224775, “Five Tetramic Acid Derivatives Isolated from the Iranian Fungus Colpoma quercinum CCTU A372” (Biomolecules, 2021) are described below.

≈ marks a conversion by molar mass, not a printed value. Marks after values point to notes of the source that are not given here.

The test system of assay [1] is human breast adenocarcinoma MCF-7. Briefly: 5-day MTT cytotoxicity assay. Format: cell-based. The note with it: Homo sapiens, MCF7, 120 h. How it is done:
(§1) Cytotoxicity of compounds 1‒5 was initially determined against two cancer cell lines (mouse fibroblasts L-929 and human endocervical adenocarcinoma KB-3.1) by using a 5-day MTT assay according to an established procedure.
(§2) In 96-well flat-bottom microtiter plates, cell lines with serial dilution of the test compounds (final range: 37 to 0.6 × 10^−3 µg/mL) were incubated for five days. After five days, the cells were dyed using 3-(4,5-dimethyl-2-thiazolyl)-2,5-diphenyl-2H-tetrazolium bromide (MTT), which is only converted to its purple formazan derivative by living cells. The half-maximum inhibitory concentration (IC50 in µM) was calculated via the colorimetric method in a microplate reader using absorption at 595 nm. In addition, when an inhibition with an IC50 < 50 µM was observed, other cell lines were subjected to the test compounds to evaluate their further cytotoxicity: PC-3 (human prostate adenocarcinoma), SK-OV-3 (human ovary adenocarcinoma), MCF-7 (human breast adenocarcinoma), A-431 (human squamous carcinoma), and A549 (human lung carcinoma). A detailed procedure, including the colorimetric method to determine the cell viability, can be found in the SI.
(§3) Protocol: Cytotoxicity Assay
(§4) The assay was co nducted in 9 6-well flat -botto m microtiter plates using the parameters summarised in T able S2 and as described in [S2]. Cell l ines L-929 and KB-3.1 were incubated at 37 °C under 10 % CO2 in Gibco™ DMEM medium (T her mo Fisher Scientific, Waltham, M A, USA) supplemented with 10 % FBS. A microtiter plate was filled wit h 120 μ L o f this suspensio n (50,000/mL) in each well. Seperatel y, a nother microti ter plate wa s filled wit h 100 μL of gro wth medium in each well. Then, 50 μ L of the test compound solutions (1 mg/mL) were given to wells of the first column in two replicates (one compound per row). Cells without additives and MeOH were used as nega tive controls. Starting from the first column, 50 μ L of the solutions were gradually transferred to the next column, the contents thoroughly mixed, and 50 μL transferred to the following column. This created a serial dilution of the test compounds ranging from 333 μ g/mL to 1.9×10-3 μg/ mL. T he re mai ni ng 50 μ L after column twelve were discarded. From this microtiter plate, 60 μ L of the solutions fro m 111 μ g/mL to 1.9×10-3 μg/mL we r e give n to t he firs t p late co ntai ni ng 1 2 0 μ L of the cell suspensions (i.e. the highest co ncentration 333 μ g/ mL wa s no t used). T his resul ted in fi nal compo und concentratio ns rangi ng fro m 37 μ g/mL to 0.6×10-3 μg/ mL. After 5 days o f incubatio n under the aforementioned incubatio n conditions, the half maximu m inhibitory co ncentrations (IC50) were deter mined using a colorimetric tetrazolium d ye MT T assa y [S3]. For this, 20 μ L of a 5 mg/mL solution of 3-(4,5-dimethyl-2 -thiazolyl) -2,5-diphenyl-2H-tetrazolium br omide (MTT) were added to each well and incubated for two hours at 37 °C. T hen, the microtiter plate was ce ntrifuged (3,000 rpm, 5 min) and the supernatant removed by holding the plate upside-down and gentle shaking. Afterwards, the wells were washed using 100 μ L of phosphate buffered saline (PBS). T he plate was a gain ce ntrifuged a nd the supernata nt re mo ved as described before.
(§5) T hen, 1 0 0 μ L of an isopropanol:HCl solution (1L isopropanol+4 mL HCl 37 % w/v) were added to the wells. After incubating for 10 min at ambient temperature, the absorption of the wells at 595 nm was measured with an Infinite® 200 Pro microplate reader (TECAN, Männedorf, Schweiz). The absorption values of the cells without additives were averaged and set to 100 % cell viability. Then, the means of absorption of the two compound replicates were set in relation to the blank media. T hese percentage values were plotted against the concentratio n range (37 μ g/mL to 0.6×10−3 μg/ mL). T he IC50 value was r ead fro m the plot (in μ g/ mL) a nd the uni ts conversed […]
to μM. […]
For orientation: Tetrazolium dyes change colour on reduction, which living cells bring about.

Assay [2] relates to human prostate cancer PC-3. Briefly: 5-day MTT cytotoxicity assay. To be noted: 120 h. The format is cell-based. On the procedure: as §1, §2, §3, §4, §5
to μM. […]

Assay [3] relates to human lung carcinoma A-549. As to the kind of experiment: 5-day MTT cytotoxicity assay. The note with it: A549, 120 h. The format is cell-based. How it is done:
as §1, §2, §3, §4, §5
to μM. […]

In another assay the test system is mouse fibroblast L-929. Briefly: 5-day MTT cytotoxicity assay. The note with it: Mus musculus, L929, 120 h. Format: cell-based. How it is done: as §1, §2, §3, §4, §5
to μM. […]

Assay [4] relates to endocervical adenocarcinoma KB-3.1. As to the kind of experiment: 5-day MTT cytotoxicity assay. Format: cell-based, human. To be noted: Homo sapiens, KB 3-1, 120 h. How it is done: as §1, §2, §3, §4, §5
to μM. […]

The test system of assay [5] is squamous cell carcinoma A-431. Briefly: 5-day MTT cytotoxicity assay. Format: cell-based, human. The note with it: Homo sapiens, A-431, 120 h. How it is done: as §1, §2, §3, §4, §5
to μM. […]

For assay [6], the system named is ovarian carcinoma SK-OV-3. As to the kind of experiment: 5-day MTT cytotoxicity assay. To be noted: Homo sapiens, SK-OV-3, 120 h. Format: cell-based, human. On the procedure:
as §1, §2, §3, §4, §5
to μM. […]

Assay [7] concerns Staphylococcus aureus DSM 346. As to the kind of experiment: Antimicrobial serial dilution assay (MIC). Format: cell-based. To be noted: DSM346, serial dilution 67 to 0.5 µg/mL, overnight, read-out: MIC. How it is done: (§6) Antimicrobial activity was determined by our established protocol, according to Becker et al.. In general, all of the pure compounds were dissolved in MeOH with a concentration of 1 mg/mL. Assessment of the antimicrobial activity was determined using the serial dilution assay method to calculate the minimum inhibitory concentration (MIC). In this method, the compounds were diluted in a range between 67 and 0.5 µg/mL in 96 well-plate and incubated with the test organism overnight. The next day, growth of the test organisms was visually observed, and MIC was determined in the lowest concentration where a clear zone (no growth of test organism) was observed. In our attempt for novel anti-infective compounds, an established standard protocol using various organisms representing a broad spectrum of pathogens of clinical interest, as well as sensitive indicator strains, was used (bacteria: Bacillus subtilis DSM 10, Staphylococcus aureus DSM 346, Acinetobacter baumanii DSM 30008, Chromobacterium violaceum DSM 30191, Escherichia coli DSM 1116 and Pseudomonas aeruginosa PA14; mycobacteria: Mycobacterium smegmatis ATCC 700084 and fungi: Candida albicans DSM 1665, Schizosaccharomyces pombe DSM 70572, Mucor hiemalis DSM 2656, Wickerhamomyces anomala DSM 6766 and Rhodotorula glutinis DSM 10134). Methanol as a solvent to dissolve the pure compounds was used as the negative control. Oxytetracycline, ciprofloxacin, gentamycin, and kanamycin were used as positive controls against bacteria, whereas nystatin was used against fungi. A detailed experimental procedure can be found in the SI.
(§7) Protocol: Antimicrobial Activity Assay
(§8) The assay was conducted as a minimum inhibitory concentration (MIC) assay in 96-well round- bottom microtiter plates using the parameters summarized in Table S1 and as already described in [S1]. Stocks of the test organisms were generated by growing the organisms overnight in 50 mL shaking flasks filled with 25 mL of the growth medium at 140r p m ( media and temperatures see Table S1). If the organisms were well grown the next day, which was checked by the occurrence of an optical density (OD) […] of the suspension (OD600 nm for bacteria, OD548 nm for fungi and M. smegmatis), aliquots of these were stored in 1.5 mL reaction tubes in a freezer at −80 °C for up to 12 months. Upon use, aliquots were unthawed and the OD of the suspension measured and adjusted by diluting with the respective growth medium. OD600 nm was adjusted to 0.01 and OD548 nm to 0.1. Subsequently, 150 μ L of the adj usted suspensions were added to all wells of a 96-well microtiter plate (one test organism per plate). In row A, additional 130 μ L of suspensions plus 20 μ L of the test compounds (1 mg/mL) and the controls (one compound/column) were added. MeOH was used as negative controls, while different positive controls (references) were used for the test organisms (see Table S1). Then, starting from row A, 150 μ L of t he suspension were transferred to the next row, the contents thoroughly mixed, and 150 μ L transferred to the following row. The remaining 150 μ L after row H were discarded. […]
of the test compounds, ranging from 66.7 μg/mL in row A to 0.52 μ g/mL in row H. The microtiter plates were then incubated overnight on a microplate shaker at 800 rpm at 30 or 37 °C (see Table S1) and were visually evaluated the next day. The MIC is defined as the lowest concentration where no growth of the test organism (clear zone) was observed. […]

Another assay deals with Escherichia coli. Briefly: Antimicrobial serial dilution assay (MIC). The format is cell-based. The note with it: serial dilution 67 to 0.5 µg/mL, overnight, read-out: MIC. On the procedure:
as §6, §7, §8
(§9) of the test compounds, ranging from 66.7 μg/mL in row A to 0.52 μ g/mL in row H. The microtiter plates were then incubated overnight on a microplate shaker at 800 rpm at 30 or 37 °C (see Table S1) and were visually evaluated the next day. The MIC is defined as the lowest concentration where no growth of the test organism (clear zone) was observed. A lower MIC thus corresponds to a higher antimicrobial activity of the test compound.
(§10) Table S1: MIC assay experiment parameters test organism strain No growth incubation positive control […]
Escherichia coli DSM1116 MHB1 37 oxytetracyclin 1.0mg/ mL […]
(§11) Candidaa lbicans DSM1665 MYC3 30 nystatin 1.0mg/ mL
(§12) Schizosaccharomyces DSM70572 MYC3 30 nystatin 1.0mg/ mL
(§13) Mucor hiemalis DSM2656 MYC3 30 nystatin 1.0mg/ mL
(§14) Wickerhamomyces DSM6766 MYC3 30 nystatin 1.0mg/ mL
(§15) Rhodotorula glutinis DSM10134 MYC3 30 nystatin 1.0mg/ mL […]

The next assay concerns Bacillus subtilis DSM 10. As to the kind of experiment: Antimicrobial serial dilution assay (MIC). The format is cell-based. The note with it: DSM10, serial dilution 67 to 0.5 µg/mL, overnight, read-out: MIC. On the procedure:
as §6, §7, §8, §9
Table S1: MIC assay experiment parameters test organism strain No growth incubation positive control
Bacillus subtilis DSM10 MHB1 30 oxytetracyclin 1.0mg/ mL […]
as §11, §12, §13, §14, §15

In another assay the test system is Mucor hiemalis DSM 2656. Briefly: Antimicrobial serial dilution assay (MIC). The format is cell-based. The note with it: serial dilution 67 to 0.5 µg/mL, overnight. How it is done: as §6, §7, §8, §9, §10, §11, §12, §13, §14
(§16) Rhodotorula glutinis DSM10134 MYC3 30 nystatin 1.0mg/ mL
(§17) 1 MHB: Müller-Hinton Broth (SN X927.1, CarlRoth GmbH, Karlsruhe, Germany) […]

Assay [8] has as its system Rhodotorula glutinis DSM 10134. Briefly: Antimicrobial serial dilution assay (MIC). The format is cell-based. The note with it: serial dilution 67 to 0.5 µg/mL, overnight. On the procedure: as §6, §7, §8, §9, §10, §11, §12, §13, §14, §16, §17
A further assay concerns Pichia anomala DSM 6766. As to the kind of experiment: Antimicrobial serial dilution assay (MIC). The format is cell-based. The note with it: serial dilution 67 to 0.5 µg/mL, overnight. How it is done: as §6, §7, §8, §9, §10, §11, §12, §13, §14, §16, §17
For assay [9], the system named is Acinetobacter baumanii DSM 30008. As to the kind of experiment: Antimicrobial serial dilution assay (MIC). Format: cell-based. To be noted: Acinetobacter baumannii, DSM30008, serial dilution 67 to 0.5 µg/mL, overnight, read-out: MIC. How it is done:
as §6, §7, §8, §9, §10, §11, §12, §13, §14, §16, §17

What is called IC50 is the concentration that gives 50% inhibition. A higher IC50 goes with a need for much substance. A word on the MIC: it is the smallest concentration in the dilution series that meets the test's criterion for growth inhibition.

Regarding `C/C(=C\c1csc(C)n1)[C@@H]1C[C@@H]2O[C@]2(C)CCC[C@H](C)[C@H](O)[C@@H](C)C(=O)C(C)(C)[C@@H](O)CC(=O)O1` [epothilone B, reference compound], the IC50 in assay [1] amounted to 0.071 nM; in assay [2] it was 0.27 nM; in [3], 0.055 nM; in the assay on mouse fibroblast L-929, 0.83 nM; in assay [4] it was 0.053 nM; in [5] it was 0.083 nM. The IC50 in assay [6] came out at 0.24 nM.

Take `CN(C)[C@@H]1C(O)=C(C(N)=O)C(=O)[C@@]2(O)C(O)=C3C(=O)c4c(O)cccc4[C@@](C)(O)[C@H]3[C@H](O)[C@@H]12` [oxytetracycline, reference compound]: the minimal inhibitory concentration (MIC) is 1.7 µg/mL (≈ 3.69 µM) in [7], 1.7 µg/mL (≈ 3.69 µM) with Escherichia coli and 8.3 µg/mL (≈ 18 µM) in the assay on Bacillus subtilis DSM 10.

`C[C@@H]1[C@H](O)[C@@H](C)/C=C/C=C/CC/C=C/C=C/C=C/C=C/C(O[C@H]2O[C@H](C)[C@@H](O)[C@H](N)[C@@H]2O)CC2O[C@](O)(CC(O)C(O)CCC(O)CC(O)CC(O)CC(=O)O[C@H]1C)CC(O)C2C(=O)O` (some centres unmarked) [nystatin, reference compound]: the MIC is on record as 4.2 ^b µg/mL in the assay on Mucor hiemalis DSM 2656, 1.0 ^b µg/mL in [8] and 4.2 ^b µg/mL in the assay with Pichia anomala DSM 6766.

Consider `O=C(O)c1cn(C2CC2)c2cc(N3CCNCC3)c(F)cc2c1=O` [ciprofloxacin, reference compound], for which, in assay [9], the MIC worked out at 0.26 µg/mL (≈ 0.785 µM).
